Measurements published in ChEMBL document CHEMBL1154622, “Structure-guided design of potent and selective pyrimidylpyrrole inhibitors of extracellular signal-regulated kinase (ERK) using conformational control” (J Med Chem, 2009).

Columns and labels:
[1] = Half life in mouse at 33 mg/kg, po; type: ADME, organism-based; set-up: dose 33 mg/kg, route oral; details: in vivo
[2] = molecular target: Receptor-type tyrosine-protein kinase FLT3 (Homo sapiens, UniProt P36888); test: Inhibition of FLT3
[3] = molecular target: Tyrosine-protein kinase JAK2 (Homo sapiens, UniProt O60674); test: Inhibition of JAK2
[4] = molecular target: Hepatocyte growth factor receptor (Homo sapiens, UniProt P08581); test: Inhibition of MET
[5] = molecular target: T1, RAC-gamma serine/threonine-protein kinase (Homo sapiens, UniProt Q9Y243); test: Inhibition of AKT3
[6] = molecular target: Mitogen-activated protein kinase kinase kinase 3 (Homo sapiens, UniProt Q99759); test: Inhibition of MEKK3
[7] = molecular target: Citron Rho-interacting kinase (Homo sapiens, UniProt O14578); test: Inhibition of CIT
[8] = molecular target: Interleukin-1 receptor-associated kinase 1 (Homo sapiens, UniProt P51617); test: Inhibition of IRAK1
[9] = molecular target: Mitogen-activated protein kinase kinase kinase 10 (Homo sapiens, UniProt Q02779); test: Inhibition of MLK2
[10] = molecular target: T1, RAC-gamma serine/threonine-protein kinase; test: Inhibition of AKT3 at 1 uM
[11] = molecular target: 5'-AMP-activated protein kinase catalytic subunit alpha-2 (Homo sapiens) (UniProt P54646); test: Inhibition of AMPK at 2 uM
[12] = molecular target: Tyrosine-protein kinase Blk (Homo sapiens) (UniProt P51451); test: Inhibition of BLK at 2 uM
[13] = molecular target: Serine/threonine-protein kinase BRSK1 (Homo sapiens) (UniProt Q8TDC3); test: Inhibition of BRSK1 at 1 uM
[14] = molecular target: Casein kinase I isoform alpha (Homo sapiens) (UniProt P48729); test: Inhibition of CK1 at 2 uM
[15] = Inhibition of CK2 at 2 uM
[16] = molecular target: Dual specificity tyrosine-phosphorylation-regulated kinase 2 (Homo sapiens) (UniProt Q92630); test: Inhibition of DYRK2 at 1 uM
[17] = molecular target: Epidermal growth factor receptor (Homo sapiens) (UniProt P00533); test: Inhibition of EGFR at 1 uM
[18] = molecular target: Fibroblast growth factor receptor 3 (Homo sapiens) (UniProt P22607); test: Inhibition of FGFR3 at 1 uM
[19] = molecular target: Fibroblast growth factor receptor 4 (Homo sapiens) (UniProt P22455); test: Inhibition of FGFR4 at 1 uM
[20] = molecular target: Vascular endothelial growth factor receptor 3 (Homo sapiens) (UniProt P35916); test: Inhibition of FLT-4 at 1 uM
[21] = molecular target: Tyrosine-protein kinase Fyn (Homo sapiens) (UniProt P06241); test: Inhibition of FYN at 2 uM
[22] = molecular target: Tyrosine-protein kinase HCK (Homo sapiens) (UniProt P08631); test: Inhibition of HCK at 1 uM
[23] = molecular target: Insulin-like growth factor 1 receptor (Homo sapiens) (UniProt P08069); test: Inhibition of IGF1R at 1 uM
[24] = molecular target: Insulin receptor (Homo sapiens) (UniProt P06213); test: Inhibition of INSR at 1 uM
[25] = molecular target: Insulin receptor-related protein (Homo sapiens) (UniProt P14616); test: Inhibition of IRR at 1 uM
[26] = molecular target: Mast/stem cell growth factor receptor Kit (Homo sapiens) (UniProt P10721); test: Inhibition of KIT at 1 uM
[27] = molecular target: MAP kinase-activated protein kinase 3 (Homo sapiens) (UniProt Q16644); test: Inhibition of MAPKAPK3 at 1 uM
[28] = molecular target: Dual specificity mitogen-activated protein kinase kinase 4 (Homo sapiens) (UniProt P45985); test: Inhibition of MKK4 at 2 uM
[29] = molecular target: Dual specificity mitogen-activated protein kinase kinase 6 (Homo sapiens) (UniProt P52564); test: Inhibition of MKK6 at 2 uM
[30] = molecular target: Mitogen-activated protein kinase 11 (Homo sapiens) (UniProt Q15759); test: Inhibition of P38beta at 2 uM
[31] = molecular target: Ribosomal protein S6 kinase beta-1 (Homo sapiens) (UniProt P23443); test: Inhibition of P70S6K at 2 uM
[32] = molecular target: Serine/threonine-protein kinase PAK 2 (Homo sapiens) (UniProt Q13177); test: Inhibition of PAK2 at 1 uM
[33] = molecular target: Serine/threonine-protein kinase PAK 3 (Homo sapiens) (UniProt O75914); test: Inhibition of PAK3 at 1 uM
[34] = molecular target: Serine/threonine-protein kinase pim-1 (Homo sapiens) (UniProt P11309); test: Inhibition of PIM1 at 1 uM
[35] = molecular target: Serine/threonine-protein kinase pim-2 (Homo sapiens) (UniProt Q9P1W9); test: Inhibition of PIM2 at 1 uM
[36] = molecular target: Protein kinase C alpha type (Homo sapiens) (UniProt P17252); test: Inhibition of PKCalpha at 2 uM
[37] = molecular target: Protein kinase C gamma type (Homo sapiens) (UniProt P05129); test: Inhibition of PKCgamma at 2 uM
[38] = molecular target: Serine/threonine-protein kinase D2 (Homo sapiens) (UniProt Q9BZL6); test: Inhibition of PRKD2 at 1 uM
[39] = molecular target: Proto-oncogene tyrosine-protein kinase receptor Ret (Homo sapiens) (UniProt P07949); test: Inhibition of RET at 1 uM
[40] = molecular target: T2, Aurora kinase A (Homo sapiens, UniProt O14965); test: Inhibition of AURA
T2 sequence (O14965 whole entry): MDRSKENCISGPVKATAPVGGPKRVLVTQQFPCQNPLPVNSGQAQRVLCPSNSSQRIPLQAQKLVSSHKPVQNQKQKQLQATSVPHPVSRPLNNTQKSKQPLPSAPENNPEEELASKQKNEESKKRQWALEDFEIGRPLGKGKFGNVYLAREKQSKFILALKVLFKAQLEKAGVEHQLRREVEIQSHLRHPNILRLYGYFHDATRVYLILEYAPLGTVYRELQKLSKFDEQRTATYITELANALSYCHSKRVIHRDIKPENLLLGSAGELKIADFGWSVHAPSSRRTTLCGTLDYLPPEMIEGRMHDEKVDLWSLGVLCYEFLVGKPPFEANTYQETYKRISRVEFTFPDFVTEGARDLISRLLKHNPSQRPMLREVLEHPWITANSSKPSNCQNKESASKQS

[41] = Half life in rat at 3 mg/kg, iv; type: ADME, organism-based; set-up: dose 3 mg/kg, route intravenous; details: in vivo
[42] = Volume of distribution at steady state in rat at 3 mg/kg, iv; type: ADME, organism-based; set-up: dose 3 mg/kg, route intravenous; details: in vivo, read-out: Vdss
[43] = AUC (0 to 8 hrs) in rat at 3 mg/kg, iv; type: ADME, organism-based; set-up: time < 8 hr, dose 3 mg/kg, route intravenous; details: plasma
[44] = Plasma concentration in rat at 3 mg/kg, iv after 4 hrs; type: ADME, organism-based; set-up: dose 3 mg/kg, route intravenous
[45] = Plasma concentration in rat at 10 mg/kg, po after 8 hrs; type: ADME, organism-based; set-up: dose 10 mg/kg, route oral
[46] = Oral bioavailability in mouse at 33 mg/kg; type: ADME, organism-based; details: in vivo
[47] = molecular target: Inhibitor of nuclear factor kappa-B kinase subunit alpha (Homo sapiens) (UniProt O15111); details: 2 uM
Description: Inhibition of IKKalpha at 2 uM

T1 sequence (Q9Y243 whole entry): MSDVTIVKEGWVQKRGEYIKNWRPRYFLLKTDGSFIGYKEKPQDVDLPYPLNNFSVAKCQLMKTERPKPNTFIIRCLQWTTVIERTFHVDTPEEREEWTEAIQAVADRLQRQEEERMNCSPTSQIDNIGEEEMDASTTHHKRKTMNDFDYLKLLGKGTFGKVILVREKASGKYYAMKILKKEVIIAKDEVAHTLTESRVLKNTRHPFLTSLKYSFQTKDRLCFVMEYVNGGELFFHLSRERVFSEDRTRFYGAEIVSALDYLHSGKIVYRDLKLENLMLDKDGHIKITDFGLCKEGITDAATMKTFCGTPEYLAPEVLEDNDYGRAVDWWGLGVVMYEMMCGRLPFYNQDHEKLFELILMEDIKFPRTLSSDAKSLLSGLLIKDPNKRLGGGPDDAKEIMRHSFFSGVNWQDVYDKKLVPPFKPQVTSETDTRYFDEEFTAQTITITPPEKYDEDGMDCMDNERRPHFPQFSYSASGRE
Sequence of Hepatocyte growth factor receptor (P08581 whole entry): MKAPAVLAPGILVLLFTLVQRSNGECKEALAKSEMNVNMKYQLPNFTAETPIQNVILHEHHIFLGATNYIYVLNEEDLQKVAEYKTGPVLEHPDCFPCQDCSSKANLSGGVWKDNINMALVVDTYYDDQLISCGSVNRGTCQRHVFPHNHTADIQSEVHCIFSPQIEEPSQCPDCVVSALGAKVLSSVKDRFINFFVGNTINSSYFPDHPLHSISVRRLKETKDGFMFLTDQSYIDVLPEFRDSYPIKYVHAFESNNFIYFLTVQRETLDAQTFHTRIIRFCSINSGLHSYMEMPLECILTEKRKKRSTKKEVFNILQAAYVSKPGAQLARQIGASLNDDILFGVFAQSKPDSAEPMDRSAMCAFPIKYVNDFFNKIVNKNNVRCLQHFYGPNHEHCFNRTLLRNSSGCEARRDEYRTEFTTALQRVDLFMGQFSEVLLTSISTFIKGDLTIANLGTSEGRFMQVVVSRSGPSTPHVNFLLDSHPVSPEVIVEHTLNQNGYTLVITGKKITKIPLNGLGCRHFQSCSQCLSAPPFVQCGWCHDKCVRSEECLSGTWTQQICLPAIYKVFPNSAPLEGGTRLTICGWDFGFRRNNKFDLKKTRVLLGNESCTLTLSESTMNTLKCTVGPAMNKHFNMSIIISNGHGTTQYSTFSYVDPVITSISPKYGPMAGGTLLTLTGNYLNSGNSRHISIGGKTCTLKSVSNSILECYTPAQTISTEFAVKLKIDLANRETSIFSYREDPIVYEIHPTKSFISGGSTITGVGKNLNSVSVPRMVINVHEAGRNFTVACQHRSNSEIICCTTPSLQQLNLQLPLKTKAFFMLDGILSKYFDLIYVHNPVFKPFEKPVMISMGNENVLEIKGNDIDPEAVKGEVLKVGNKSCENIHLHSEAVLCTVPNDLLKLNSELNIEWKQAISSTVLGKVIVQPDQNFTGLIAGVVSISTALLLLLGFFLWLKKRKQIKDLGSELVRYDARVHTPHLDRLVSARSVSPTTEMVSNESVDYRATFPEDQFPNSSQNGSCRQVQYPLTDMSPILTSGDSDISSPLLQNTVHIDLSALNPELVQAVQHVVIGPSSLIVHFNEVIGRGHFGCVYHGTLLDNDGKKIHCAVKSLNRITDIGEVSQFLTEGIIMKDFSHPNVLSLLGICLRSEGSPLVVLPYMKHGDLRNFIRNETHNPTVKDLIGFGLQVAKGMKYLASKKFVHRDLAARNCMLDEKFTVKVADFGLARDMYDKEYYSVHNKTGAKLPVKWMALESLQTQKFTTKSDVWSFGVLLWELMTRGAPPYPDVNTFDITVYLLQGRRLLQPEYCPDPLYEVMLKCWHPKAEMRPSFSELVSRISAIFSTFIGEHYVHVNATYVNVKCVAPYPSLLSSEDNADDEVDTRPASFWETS
Sequence of Dual specificity tyrosine-phosphorylation-regulated kinase 2 (Homo sapiens) (Q92630 whole entry): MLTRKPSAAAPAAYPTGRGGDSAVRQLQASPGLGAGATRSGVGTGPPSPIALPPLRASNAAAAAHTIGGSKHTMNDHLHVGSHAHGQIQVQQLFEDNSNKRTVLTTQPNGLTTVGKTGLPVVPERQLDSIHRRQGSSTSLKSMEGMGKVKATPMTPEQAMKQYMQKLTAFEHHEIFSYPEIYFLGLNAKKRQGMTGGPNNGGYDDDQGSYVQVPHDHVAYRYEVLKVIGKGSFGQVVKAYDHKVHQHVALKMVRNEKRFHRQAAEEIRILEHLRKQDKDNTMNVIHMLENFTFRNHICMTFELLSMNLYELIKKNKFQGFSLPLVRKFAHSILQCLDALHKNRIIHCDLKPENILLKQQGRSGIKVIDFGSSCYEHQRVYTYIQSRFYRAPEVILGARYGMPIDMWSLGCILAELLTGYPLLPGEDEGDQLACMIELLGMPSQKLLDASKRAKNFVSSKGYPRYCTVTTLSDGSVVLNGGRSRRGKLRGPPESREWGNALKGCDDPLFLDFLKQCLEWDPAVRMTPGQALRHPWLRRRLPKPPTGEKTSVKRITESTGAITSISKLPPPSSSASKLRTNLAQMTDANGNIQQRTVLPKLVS
Sequence of Fibroblast growth factor receptor 3 (Homo sapiens) (P22607 23-806 limits assumed): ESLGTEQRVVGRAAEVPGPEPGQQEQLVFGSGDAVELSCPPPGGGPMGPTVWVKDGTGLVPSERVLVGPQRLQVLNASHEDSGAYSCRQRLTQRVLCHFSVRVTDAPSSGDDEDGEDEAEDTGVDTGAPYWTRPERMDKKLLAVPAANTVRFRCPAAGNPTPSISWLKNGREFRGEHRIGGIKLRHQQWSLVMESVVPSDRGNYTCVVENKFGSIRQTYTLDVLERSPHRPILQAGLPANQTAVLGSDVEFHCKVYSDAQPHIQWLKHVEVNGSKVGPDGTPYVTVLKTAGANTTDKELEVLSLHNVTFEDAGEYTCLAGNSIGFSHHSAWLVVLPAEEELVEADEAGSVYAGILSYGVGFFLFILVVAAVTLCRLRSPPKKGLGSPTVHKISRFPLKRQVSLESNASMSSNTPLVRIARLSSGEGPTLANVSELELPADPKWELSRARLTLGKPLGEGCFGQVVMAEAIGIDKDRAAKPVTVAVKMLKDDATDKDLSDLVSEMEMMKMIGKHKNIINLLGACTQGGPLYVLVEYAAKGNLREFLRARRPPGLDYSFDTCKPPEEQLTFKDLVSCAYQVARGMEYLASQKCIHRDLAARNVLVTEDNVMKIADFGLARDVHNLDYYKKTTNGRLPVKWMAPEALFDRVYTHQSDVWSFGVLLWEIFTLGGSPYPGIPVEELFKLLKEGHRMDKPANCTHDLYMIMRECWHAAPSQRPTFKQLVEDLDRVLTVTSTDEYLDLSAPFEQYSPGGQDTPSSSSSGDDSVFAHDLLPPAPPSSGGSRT
Sequence of Serine/threonine-protein kinase BRSK1 (Homo sapiens) (Q8TDC3 whole entry, canonical isoform): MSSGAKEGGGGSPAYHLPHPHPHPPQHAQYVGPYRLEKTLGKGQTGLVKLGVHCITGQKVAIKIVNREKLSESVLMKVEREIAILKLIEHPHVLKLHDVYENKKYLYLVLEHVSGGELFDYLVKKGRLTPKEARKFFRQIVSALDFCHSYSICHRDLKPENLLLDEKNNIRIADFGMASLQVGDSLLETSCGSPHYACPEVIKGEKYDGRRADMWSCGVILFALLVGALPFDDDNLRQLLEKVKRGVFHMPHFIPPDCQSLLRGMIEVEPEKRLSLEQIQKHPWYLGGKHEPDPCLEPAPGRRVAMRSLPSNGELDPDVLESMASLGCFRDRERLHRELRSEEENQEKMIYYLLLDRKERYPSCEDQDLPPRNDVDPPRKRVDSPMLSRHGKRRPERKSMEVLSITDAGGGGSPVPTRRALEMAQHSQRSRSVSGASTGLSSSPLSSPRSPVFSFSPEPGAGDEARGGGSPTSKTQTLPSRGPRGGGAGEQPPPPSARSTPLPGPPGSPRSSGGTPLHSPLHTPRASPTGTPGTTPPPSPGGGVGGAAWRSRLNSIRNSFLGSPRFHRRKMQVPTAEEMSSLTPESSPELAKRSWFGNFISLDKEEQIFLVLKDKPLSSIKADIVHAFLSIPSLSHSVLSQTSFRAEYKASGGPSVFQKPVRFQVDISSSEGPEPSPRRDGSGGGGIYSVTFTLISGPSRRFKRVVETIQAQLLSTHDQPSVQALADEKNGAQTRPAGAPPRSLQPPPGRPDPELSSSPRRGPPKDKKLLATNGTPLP
Sequence of Serine/threonine-protein kinase PAK 3 (Homo sapiens) (O75914 whole entry, looked up): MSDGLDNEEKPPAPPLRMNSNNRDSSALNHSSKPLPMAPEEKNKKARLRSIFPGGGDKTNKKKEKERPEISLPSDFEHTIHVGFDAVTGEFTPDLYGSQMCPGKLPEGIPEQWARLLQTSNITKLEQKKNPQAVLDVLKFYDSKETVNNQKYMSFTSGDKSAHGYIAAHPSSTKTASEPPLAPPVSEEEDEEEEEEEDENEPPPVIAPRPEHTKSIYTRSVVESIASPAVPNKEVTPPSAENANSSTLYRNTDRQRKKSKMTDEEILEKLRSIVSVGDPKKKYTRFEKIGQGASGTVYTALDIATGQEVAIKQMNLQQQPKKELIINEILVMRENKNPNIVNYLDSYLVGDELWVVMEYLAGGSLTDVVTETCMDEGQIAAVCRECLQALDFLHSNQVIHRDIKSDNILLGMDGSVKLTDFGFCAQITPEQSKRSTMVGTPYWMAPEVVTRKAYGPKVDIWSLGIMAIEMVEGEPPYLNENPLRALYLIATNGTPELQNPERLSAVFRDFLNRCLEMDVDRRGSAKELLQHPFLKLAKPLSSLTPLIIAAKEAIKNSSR
Sequence of Serine/threonine-protein kinase pim-1 (Homo sapiens) (P11309 whole entry, looked up): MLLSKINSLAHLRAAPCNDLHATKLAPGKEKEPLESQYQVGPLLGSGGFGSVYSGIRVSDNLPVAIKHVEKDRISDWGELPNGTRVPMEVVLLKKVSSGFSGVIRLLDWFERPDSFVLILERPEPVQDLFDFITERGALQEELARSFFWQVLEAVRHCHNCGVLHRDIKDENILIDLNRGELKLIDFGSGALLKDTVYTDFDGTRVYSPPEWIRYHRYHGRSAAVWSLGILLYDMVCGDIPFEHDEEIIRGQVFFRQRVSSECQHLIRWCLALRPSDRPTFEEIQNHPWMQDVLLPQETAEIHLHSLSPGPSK

`Cc1cnc(Nc2ccc(F)cc2Cl)nc1-c1c[nH]c(C(=O)N[C@H](CO)c2cccc(Cl)c2)c1` showed a half-life [1] of 4.4 h, a Ki [2] of 1.4 µM and a Ki [3] of over 4 µM. For the same compound, the Ki [4] was over 4 µM, the Ki [5] was over 4 µM and the Ki [6] was over 4 µM. The Ki [7] was over 10 µM, the Ki [8] was over 10 µM and the Ki [9] was over 10 µM. The inhibition [10] was 0%, the inhibition [11] was 5% and the inhibition [12] was 7%. It also gave an inhibition [13] of 0%, an inhibition [14] of 25% and an inhibition [15] of 0%. The inhibition [16] was 3%, the inhibition [17] was 6% and the inhibition [18] was 8%. It also gave an inhibition [19] of 0.3%, an inhibition [20] of 8% and an inhibition [21] of 11%. The inhibition [22] was 3%, the inhibition [23] was 2% and the inhibition [24] was 4%. It also gave an inhibition [25] of 0%, an inhibition [26] of 8% and an inhibition [27] of 5%. The inhibition [28] was 69%, the inhibition [29] was 9% and the inhibition [30] was 25%. The inhibition [31] was 18%, the inhibition [32] was 0% and the inhibition [33] was 3%. It also gave an inhibition [34] of 0%, an inhibition [35] of 3% and an inhibition [36] of 12%. For the same compound, the inhibition [37] was 11%, the inhibition [38] was 50% and the inhibition [39] was 3%. The Ki [40] was 0.54 µM, the half-life [41] was 3.2 h and the Vd [42] was 4.9 L/kg. The AUC(0-t) at 8 h [43] was 1600 ng·h/mL, the concentration at 4 h [44] was 123 ng/mL and the concentration at 8 h [45] was 267 ng/mL. It also gave a bioavailability [46] of 67% and an inhibition [47] of 0%.
